Data as given in paper PMC7677715 (Redox Biology, 2020).

Assays:
[1] = biological target: T1, α-tocopherol transfer protein (α-TTP) (Homo sapiens, UniProt P49638); experiment: FRET ligand transfer to/from liposomes; assay type: binding
T1 sequence (P49638 1-278): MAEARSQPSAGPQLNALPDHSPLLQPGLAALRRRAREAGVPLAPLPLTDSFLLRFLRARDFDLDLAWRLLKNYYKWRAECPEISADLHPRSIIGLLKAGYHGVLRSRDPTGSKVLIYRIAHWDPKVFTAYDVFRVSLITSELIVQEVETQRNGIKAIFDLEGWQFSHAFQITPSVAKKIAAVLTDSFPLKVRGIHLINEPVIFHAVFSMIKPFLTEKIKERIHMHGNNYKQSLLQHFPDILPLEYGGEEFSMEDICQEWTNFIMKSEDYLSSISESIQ

[2] = biological target: T2, γ-TTP (α-tocopherol transfer protein A156L) (Homo sapiens, UniProt P49638, A156L); experiment: X-ray crystal structure; assay type: binding
T2 sequence (P49638 48-278 A156L): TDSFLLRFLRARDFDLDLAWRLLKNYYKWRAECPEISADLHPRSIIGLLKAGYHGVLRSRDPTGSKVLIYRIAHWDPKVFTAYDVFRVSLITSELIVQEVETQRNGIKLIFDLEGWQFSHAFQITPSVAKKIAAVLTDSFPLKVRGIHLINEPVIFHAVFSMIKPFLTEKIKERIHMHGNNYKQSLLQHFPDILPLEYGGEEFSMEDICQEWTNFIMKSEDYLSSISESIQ

Kp [1]	Kd [2]	Structure (SMILES)
4.05	–	Cc1c(O)cc2c(c1C)O[C@](C)(CCC[C@H](C)CCC[C@H](C)CCCC(C)C)CC2 [γ-tocopherol]
–	53.8 nM	Cc1c(O)cc2c(c1C)O[C@](C)(CCC[C@H](C)CCC[C@H](C)CCCC(C)C)CC2 [RRR-γ-tocopherol]
